Measured values from patent publication US20240132521A1, “COMPOUNDS AND METHODS FOR MODULATING HER2” (Iambic Therapeutics, Inc., priority 2022, published 2024).
Read-outs that look alike come from different tables or passages of the source.

How the values were obtained:
Format in all cases: cell-based
BaF3_HER2YVMA cells = BaF3_HER2YVMA cells (Homo sapiens, UniProt P04626, DUP772-775, cells depend on it); experiment: Cell growth inhibition assay (CellTiterGlo), BaF3_HER2YVMA
BaF3_EGFRWT cells = BaF3_EGFRWT cells (Homo sapiens, UniProt P00533); experiment: Cell growth inhibition assay (CellTiterGlo), BaF3_EGFRWT
BaF3_HER2WT cells = BaF3_HER2WT cells (Homo sapiens, UniProt P04626); experiment: Cell growth inhibition assay (CellTiterGlo), BaF3_HER2WT
[1] = cell growth inhibition, 3 days treatment, read-out: HER2 - YVMA IC50
[2] = cell growth inhibition, 80 ng/mL EGF, 3 days treatment, read-out: EGFR WT IC50
[3] = cell growth inhibition, 3 days treatment, read-out: HER2 WT IC50
[4] = 3-day treatment, CellTiterGlo, read-out: Cell growth inhibition activity, HER2 - YVMA
[5] = 3-day treatment, CellTiterGlo, read-out: Cell growth inhibition activity, EGFR WT
[6] = 3-day treatment, CellTiterGlo, read-out: Cell growth inhibition activity, HER2 WT

Sequence of BaF3_HER2WT cells (P04626 whole entry, change not shown): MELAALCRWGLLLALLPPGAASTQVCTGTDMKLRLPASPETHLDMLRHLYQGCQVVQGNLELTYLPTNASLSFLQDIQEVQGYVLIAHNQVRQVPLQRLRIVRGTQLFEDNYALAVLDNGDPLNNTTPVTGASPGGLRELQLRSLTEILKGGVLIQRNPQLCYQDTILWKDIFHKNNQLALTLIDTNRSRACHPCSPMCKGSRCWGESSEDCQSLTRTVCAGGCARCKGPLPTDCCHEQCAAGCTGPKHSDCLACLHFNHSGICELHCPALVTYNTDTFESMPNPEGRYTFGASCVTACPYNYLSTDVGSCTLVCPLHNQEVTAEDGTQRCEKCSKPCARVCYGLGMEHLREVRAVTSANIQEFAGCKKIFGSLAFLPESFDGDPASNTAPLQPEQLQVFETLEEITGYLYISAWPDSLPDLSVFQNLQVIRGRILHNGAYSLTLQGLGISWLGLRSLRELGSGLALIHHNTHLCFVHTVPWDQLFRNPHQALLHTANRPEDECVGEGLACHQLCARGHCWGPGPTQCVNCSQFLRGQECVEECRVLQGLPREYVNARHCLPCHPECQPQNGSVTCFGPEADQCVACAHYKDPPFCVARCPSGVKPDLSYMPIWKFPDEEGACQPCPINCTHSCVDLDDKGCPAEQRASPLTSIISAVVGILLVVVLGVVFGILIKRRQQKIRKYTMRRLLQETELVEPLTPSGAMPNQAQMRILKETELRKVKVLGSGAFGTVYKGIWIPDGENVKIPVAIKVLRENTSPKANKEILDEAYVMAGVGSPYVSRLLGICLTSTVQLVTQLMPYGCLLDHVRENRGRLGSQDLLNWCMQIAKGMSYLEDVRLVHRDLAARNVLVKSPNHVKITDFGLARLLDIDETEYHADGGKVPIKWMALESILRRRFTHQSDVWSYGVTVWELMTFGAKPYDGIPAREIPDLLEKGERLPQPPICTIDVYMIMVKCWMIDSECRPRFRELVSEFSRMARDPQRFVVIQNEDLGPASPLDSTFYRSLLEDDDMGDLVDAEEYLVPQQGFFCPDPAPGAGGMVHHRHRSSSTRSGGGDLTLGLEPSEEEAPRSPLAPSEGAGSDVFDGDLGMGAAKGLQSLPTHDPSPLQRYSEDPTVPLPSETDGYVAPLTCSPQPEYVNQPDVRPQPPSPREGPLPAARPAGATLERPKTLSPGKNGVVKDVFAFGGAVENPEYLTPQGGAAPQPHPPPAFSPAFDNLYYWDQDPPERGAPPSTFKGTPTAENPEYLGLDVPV
Sequence of BaF3_EGFRWT cells (P00533 whole entry, change not shown): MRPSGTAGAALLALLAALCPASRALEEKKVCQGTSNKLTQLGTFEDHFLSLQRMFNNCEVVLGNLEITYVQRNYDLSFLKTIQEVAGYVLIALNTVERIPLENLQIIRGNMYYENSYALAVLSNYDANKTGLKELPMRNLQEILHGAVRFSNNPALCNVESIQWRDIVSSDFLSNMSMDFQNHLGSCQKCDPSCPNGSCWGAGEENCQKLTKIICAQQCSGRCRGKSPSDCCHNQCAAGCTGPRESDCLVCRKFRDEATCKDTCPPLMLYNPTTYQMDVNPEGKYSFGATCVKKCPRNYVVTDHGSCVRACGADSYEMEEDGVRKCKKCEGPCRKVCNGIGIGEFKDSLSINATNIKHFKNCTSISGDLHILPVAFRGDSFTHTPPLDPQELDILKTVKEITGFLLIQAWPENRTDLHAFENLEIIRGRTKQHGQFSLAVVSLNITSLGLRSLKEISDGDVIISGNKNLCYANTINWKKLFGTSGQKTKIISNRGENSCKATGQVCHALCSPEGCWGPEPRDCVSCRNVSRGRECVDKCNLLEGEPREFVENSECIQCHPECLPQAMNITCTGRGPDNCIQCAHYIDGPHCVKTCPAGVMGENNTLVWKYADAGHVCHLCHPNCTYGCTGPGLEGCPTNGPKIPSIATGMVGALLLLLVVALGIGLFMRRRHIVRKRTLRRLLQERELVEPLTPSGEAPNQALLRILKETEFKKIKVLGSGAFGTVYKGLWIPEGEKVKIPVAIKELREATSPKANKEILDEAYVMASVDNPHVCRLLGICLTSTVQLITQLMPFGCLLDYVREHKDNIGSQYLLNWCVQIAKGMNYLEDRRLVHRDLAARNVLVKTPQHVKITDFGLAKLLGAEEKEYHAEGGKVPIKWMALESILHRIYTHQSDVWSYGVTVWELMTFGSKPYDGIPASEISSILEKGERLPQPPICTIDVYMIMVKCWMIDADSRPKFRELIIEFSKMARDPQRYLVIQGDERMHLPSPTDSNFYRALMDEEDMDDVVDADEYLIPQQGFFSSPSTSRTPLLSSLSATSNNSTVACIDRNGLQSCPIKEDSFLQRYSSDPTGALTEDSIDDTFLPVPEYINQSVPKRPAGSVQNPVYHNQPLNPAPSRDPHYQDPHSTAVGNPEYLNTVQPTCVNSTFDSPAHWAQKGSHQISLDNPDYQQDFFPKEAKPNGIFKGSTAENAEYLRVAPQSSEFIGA
Sequence of BaF3_HER2YVMA cells (P04626 with tags, fused parts or gaps DUP772-775): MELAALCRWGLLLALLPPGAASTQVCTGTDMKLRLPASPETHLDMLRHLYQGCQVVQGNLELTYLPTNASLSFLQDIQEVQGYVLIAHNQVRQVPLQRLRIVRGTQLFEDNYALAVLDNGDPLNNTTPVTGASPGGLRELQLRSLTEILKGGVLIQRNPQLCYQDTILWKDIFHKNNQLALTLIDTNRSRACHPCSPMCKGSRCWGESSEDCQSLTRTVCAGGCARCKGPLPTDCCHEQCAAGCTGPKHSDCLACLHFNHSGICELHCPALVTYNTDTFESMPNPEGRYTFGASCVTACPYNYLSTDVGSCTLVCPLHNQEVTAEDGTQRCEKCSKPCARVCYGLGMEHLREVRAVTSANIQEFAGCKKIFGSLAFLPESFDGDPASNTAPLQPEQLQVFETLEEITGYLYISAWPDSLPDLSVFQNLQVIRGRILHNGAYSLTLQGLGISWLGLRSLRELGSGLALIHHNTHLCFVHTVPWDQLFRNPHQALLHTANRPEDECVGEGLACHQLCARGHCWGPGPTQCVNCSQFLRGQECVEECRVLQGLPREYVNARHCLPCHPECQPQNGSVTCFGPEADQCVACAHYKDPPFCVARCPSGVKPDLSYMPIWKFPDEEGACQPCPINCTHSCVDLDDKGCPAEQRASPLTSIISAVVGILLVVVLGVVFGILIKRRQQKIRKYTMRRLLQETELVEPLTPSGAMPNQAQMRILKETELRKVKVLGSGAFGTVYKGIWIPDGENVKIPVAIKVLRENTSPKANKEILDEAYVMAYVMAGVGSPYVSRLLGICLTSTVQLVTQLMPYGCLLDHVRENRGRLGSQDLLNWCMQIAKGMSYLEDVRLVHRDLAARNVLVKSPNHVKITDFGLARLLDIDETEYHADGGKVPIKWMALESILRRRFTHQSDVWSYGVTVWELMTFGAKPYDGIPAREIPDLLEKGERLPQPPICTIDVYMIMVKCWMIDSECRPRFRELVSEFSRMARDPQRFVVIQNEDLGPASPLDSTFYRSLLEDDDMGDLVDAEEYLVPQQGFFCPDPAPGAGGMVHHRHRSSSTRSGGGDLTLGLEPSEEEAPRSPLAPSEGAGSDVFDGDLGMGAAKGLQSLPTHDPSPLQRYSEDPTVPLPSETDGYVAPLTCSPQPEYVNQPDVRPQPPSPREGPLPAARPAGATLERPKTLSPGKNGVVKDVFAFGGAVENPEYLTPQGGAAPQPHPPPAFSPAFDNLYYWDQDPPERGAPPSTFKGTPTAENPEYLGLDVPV

Row | SMILES | GI50 (BaF3_HER2YVMA cells; [1]) [nM] | GI50 (BaF3_EGFRWT cells; [2]) [nM] | GI50 (BaF3_HER2WT cells; [3]) [nM] | GI50 (BaF3_HER2YVMA cells; [4]) [nM] | GI50 (BaF3_EGFRWT cells; [5]) [nM] | GI50 (BaF3_HER2WT cells; [6]) [nM]
1 | Cc1cc(Nc2ncnn3ccc(C4CCN(C(=O)[C@H](F)Cl)CC4)c23)ccc1Oc1ccn2ncnc2c1 (single isomer, unassigned) [Examples 173 and 174, first eluting isomer] | 1500 to 5000 | 1500 to 5000 | 200 to 500 | – | – | –
2 | Cc1cc(Nc2ncnn3ccc(C4CC5CCC4CN5C(=O)/C=C/CN(C)C)c23)ccc1Oc1ccn2ncnc2c1 (single isomer, unassigned; first eluting) [Examples 137 and 138, first eluting isomer] | 200 to 500 | 1500 to 5000 | < 200 | – | – | –
3 | Cc1cc(Nc2ncnn3ccc(C4CCN(C(=O)[C@@H](F)Cl)CC4)c23)ccc1Oc1ccn2ncnc2c1 (single isomer, unassigned; second eluting) [Examples 173 and 174, second eluting isomer, (5)-1-(4-(4-((4-([1,2,4]triazolo[1,5-a]pyridin-7-yloxy)-3-methylphenyl)amino)pyrrolo[2,1-f][1,2,4]triazin-5-yl)piperidin-1-yl)-2-chloro-2-fluoroethan-1-one] | < 200 | 1500 to 5000 | < 200 | – | – | –
4 | C=CC(=O)N1CC(c2ccn3ncnc(Nc4ccc(Oc5ccn6ncnc6c5)c(C)c4)c23)C1 [Example 3, 1-(3-(4-((4-([1,2,4]triazolo[1,5-a]pyridin-7-yloxy)-3-methylphenyl)amino)pyrrolo[2,1-f][1,2,4]triazin-5-yl)azetidin-1-yl)prop-2-en-1-one] | – | – | – | < 200 | 500 to 1500 | < 200
5 | C=CC(=O)N1CCCC(c2ccn3ncnc(Nc4ccc(Oc5ccn6ncnc6c5)c(C)c4)c23)CC1 (stereo not drawn) [Example 9, 1-(4-(4-((4-([1,2,4]triazolo[1,5-a]pyridin-7-yloxy)-3-methylphenyl)amino)pyrrolo[2,1-f][1,2,4]triazin-5-yl)azepan-1-yl)prop-2-en-1-one] | – | – | – | < 200 | 200 to 500 | < 200
6 | C=CC(=O)N1CC2(C1)CN(c1ccn3ncnc(Nc4cnc(Oc5ccn6ncnc6c5)c(Cl)c4)c13)C2 [Example 15, 1-(6-(4-((6-([1,2,4]triazolo[1,5-a]pyridin-7-yloxy)-5-chloropyridin-3-yl)amino)pyrrolo[2,1-f][1,2,4]triazin-5-yl)-2,6-diazaspiro[3.3]heptan-2-yl)prop-2-en-1-one] | – | – | – | > 5000 | 1500 to 5000 | 1500 to 5000
7 | C=CC(=O)N1CC2(CC(c3ccn4ncnc(Nc5ccc(Oc6ccn7ncnc7c6)c(C)c5)c34)C2)C1 [Example 17, 1-(6-(4-((4-([1,2,4]triazolo[1,5-a]pyridin-7-yloxy)-3-methylphenyl)amino)pyrrolo[2,1-f][1,2,4]triazin-5-yl)-2-azaspiro[3.3]heptan-2-yl)prop-2-en-1-one] | – | – | – | < 200 | 1500 to 5000 | < 200
8 | C=C(C(=O)O)C(=O)N1CCC(c2ccn3ncnc(Nc4ccc(Oc5ccn6ncnc6c5)c(C)c4)c23)CC1 [Example 20, 2-(4-(4-((4-([1,2,4]triazolo[1,5-a]pyridin-7-yloxy)-3-methylphenyl)amino)pyrrolo[2,1-f][1,2,4]triazin-5-yl)piperidine-1-carbonyl)acrylic acid] | – | – | – | 1500 to 5000 | 1500 to 5000 | 1500 to 5000
9 | Cc1cc(Nc2ncnn3ccc(C4CCN(C(=O)/C=C/CN5CCN(C)CC5)CC4)c23)ccc1Oc1ccn2ncnc2c1 [Example 24, (E)-1-(4-(4-((4-([1,2,4]triazolo[1,5-a]pyridin-7-yloxy)-3-methylphenyl)amino)pyrrolo[2,1-f][1,2,4]triazin-5-yl)piperidin-1-yl)-4-(4-methylpiperazin-1-yl)but-2-en-1-one] | – | – | – | 500 to 1500 | 1500 to 5000 | < 200
10 | Cc1cc(Nc2ncnn3ccc(C4CCN(C(=O)/C=C/[C@H]5CCCN5C)CC4)c23)ccc1Oc1ccn2ncnc2c1 [Example 25, (R,E)-1-(4-(4-((4-([1,2,4]triazolo[1,5-a]pyridin-7-yloxy)-3-methylphenyl)amino)pyrrolo[2,1-f][1,2,4]triazin-5-yl)piperidin-1-yl)-3-(1-methylpyrrolidin-2-yl)prop-2-en-1-one] | – | – | – | < 200 | 1500 to 5000 | < 200
11 | C=C(F)C(=O)N1CC=C(c2ccn3ncnc(Nc4ccc(Oc5ccn6ncnc6c5)c(C)c4)c23)CC1 [Example 26, 1-(4-(4-((4-([1,2,4]triazolo[1,5-a]pyridin-7-yloxy)-3-methylphenyl)amino)pyrrolo[2,1-f][1,2,4]triazin-5-yl)-3,6-dihydropyridin-1(2H)-yl)-2-fluoroprop-2-en-1-one] | – | – | – | 1500 to 5000 | 1500 to 5000 | 200 to 500
12 | C=C(C#N)C(=O)N1CCC(c2ccn3ncnc(Nc4ccc(Oc5ccn6ncnc6c5)c(C)c4)c23)CC1 [Example 27, 2-(4-(4-((4-([1,2,4]triazolo[1,5-a]pyridin-7-yloxy)-3-methylphenyl)amino)pyrrolo[2,1-f][1,2,4]triazin-5-yl)piperidine-1-carbonyl)acrylonitrile] | – | – | – | 1500 to 5000 | 1500 to 5000 | 500 to 1500
13 | C=CC(=O)N1CC=C(c2ccn3ncnc(Nc4ccc(Oc5ccn6ncnc6c5)c(C)c4)c23)C1 [Example 28, 1-(3-(4-((4-([1,2,4]triazolo[1,5-a]pyridin-7-yloxy)-3-methylphenyl)amino)pyrrolo[2,1-f][1,2,4]triazin-5-yl)-2,5-dihydro-1H-pyrrol-1-yl)prop-2-en-1-one acetate] | – | – | – | 500 to 1500 | 1500 to 5000 | < 200
14 | Cc1cc(Nc2ncnn3ccc(C4=CCN(C(=O)/C=C/CN(C)C)C4)c23)ccc1Oc1ccn2ncnc2c1 [Example 29, (E)-1-(3-(4-((4-([1,2,4]triazolo[1,5-a]pyridin-7-yloxy)-3-methylphenyl)amino)pyrrolo[2,1-f][1,2,4]triazin-5-yl)-2,5-dihydro-1H-pyrrol-1-yl)-4-(dimethylamino)but-2-en-1-one acetate] | – | – | – | 1500 to 5000 | 1500 to 5000 | < 200
15 | C=C(CN(C)C)C(=O)N1C2C=C(c3ccn4ncnc(Nc5ccc(Oc6ccn7ncnc7c6)c(C)c5)c34)CC1CC2 (stereo not drawn) [Example 30, 1-(3-(4-((4-([1,2,4]triazolo[1,5-a]pyridin-7-yloxy)-3-methylphenyl)amino)pyrrolo[2,1-f][1,2,4]triazin-5-yl)-8-azabicyclo[3.2.1]oct-2-en-8-yl)-2-((dimethylamino)methyl)prop-2-en-1-one acetate] | – | – | – | < 200 | 1500 to 5000 | < 200
16 | Cc1cc(Nc2ccn3ncnc(C4CC5CCC(C4)N5C(=O)/C=C/CN(C)C)c23)ccc1Oc1ccn2cnnc2c1 (stereo not drawn) [Example 33, (E)-1-(3-(5-((4-([1,2,4]triazolo[4,3-a]pyridin-7-yloxy)-3-methylphenyl)amino)pyrrolo[2,1-f][1,2,4]triazin-4-yl)-8-azabicyclo[3.2.1]octan-8-yl)-4-(dimethylamino)but-2-en-1-one acetate] | – | – | – | 200 to 500 | 1500 to 5000 | < 200
17 | Cc1cc(Nc2ncnn3ccc(C4CCN(C(=O)C(F)Cl)CC4)c23)ccc1Oc1ccn2ncnc2c1 (stereo not drawn) [Example 35, 1-(4-(4-((4-([1,2,4]triazolo[1,5-a]pyridin-7-yloxy)-3-methylphenyl)amino)pyrrolo[2,1-f][1,2,4]triazin-5-yl)piperidin-1-yl)-2-chloro-2-fluoroethan-1-one acetate] | – | – | – | < 200 | 1500 to 5000 | < 200
18 | Cc1cc(Nc2ncnn3ccc(C4CCN(C(=O)C5CC(=O)N5)CC4)c23)ccc1Oc1ccn2ncnc2c1 (stereo not drawn) [Example 36, 4-(4-(4-((4-([1,2,4]triazolo[1,5-a]pyridin-7-yloxy)-3-methylphenyl)amino)pyrrolo[2,1-f][1,2,4]triazin-5-yl)piperidine-1-carbonyl)azetidin-2-one acetate] | – | – | – | 1500 to 5000 | 1500 to 5000 | 1500 to 5000
19 | Cc1cc(Nc2ncnn3ccc(C4CN(C(=O)/C=C/CN5CCOCC5)C4)c23)ccc1Oc1ccn2ncnc2c1 [Example 37, (E)-1-(3-(4-((4-([1,2,4]triazolo[1,5-a]pyridin-7-yloxy)-3-methylphenyl)amino)pyrrolo[2,1-f][1,2,4]triazin-5-yl)azetidin-1-yl)-4-morpholinobut-2-en-1-one] | – | – | – | < 200 | 1500 to 5000 | < 200
20 | Cc1cc(Nc2ncnn3ccc(C4CN(C(=O)/C=C/CN5CC(F)C5)C4)c23)ccc1Oc1ccn2ncnc2c1 [Example 38, (E)-1-(3-(4-((4-([1,2,4]triazolo[1,5-a]pyridin-7-yloxy)-3-methylphenyl)amino)pyrrolo[2,1-f][1,2,4]triazin-5-yl)azetidin-1-yl)-4-(3-fluoroazetidin-1-yl)but-2-en-1-one] | – | – | – | < 200 | 1500 to 5000 | < 200
21 | COC/C=C/C(=O)N1CC(c2ccn3ncnc(Nc4ccc(Oc5ccn6ncnc6c5)c(C)c4)c23)C1 [Example 40, (E)-1-(3-(4-((4-([1,2,4]triazolo[1,5-a]pyridin-7-yloxy)-3-methylphenyl)amino)pyrrolo[2,1-f][1,2,4]triazin-5-yl)azetidin-1-yl)-4-methoxybut-2-en-1-one] | – | – | – | 200 to 500 | 1500 to 5000 | 200 to 500
22 | COC1CCN(C/C=C/C(=O)N2CC(c3ccn4ncnc(Nc5ccc(Oc6ccn7ncnc7c6)c(C)c5)c34)C2)C1 (stereo not drawn) [Example 41, (E)-1-(3-(4-((4-([1,2,4]triazolo[1,5-a]pyridin-7-yloxy)-3-methylphenyl)amino)pyrrolo[2,1-f][1,2,4]triazin-5-yl)azetidin-1-yl)-4-(3-methoxypyrrolidin-1-yl)but-2-en-1-one] | – | – | – | < 200 | 1500 to 5000 | < 200
